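These data come from cells grown in 96-well plates and exposed to compound for 48 hours at five concentrations. The concentration for full growth arrest is given as TGI.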
Columns and labels:
Test in all cases: growth of human tumour cells (NCI), 48 h
CCRF-CEM leukemia = tested on: CCRF-CEM leukemia
UACC-257 melanoma = tested on: UACC-257 melanoma
SK-MEL-5 melanoma = tested on: SK-MEL-5 melanoma
SF-295 CNS = tested on: SF-295 CNS
KM12 colon = tested on: KM12 colon
OVCAR-4 ovarian = tested on: OVCAR-4 ovarian
HOP-62 NSCLC = tested on: HOP-62 NSCLC
OVCAR-3 ovarian = tested on: OVCAR-3 ovarian
SW-620 colon = tested on: SW-620 colon
OVCAR-5 ovarian = tested on: OVCAR-5 ovarian
RPMI-8226 leukemia = tested on: RPMI-8226 leukemia
HCT-15 colon = tested on: HCT-15 colon
HCC-2998 colon = tested on: HCC-2998 colon
NCI-H226 lung = tested on: NCI-H226 lung
HT29 colon = tested on: HT29 colon
UO-31 renal = tested on: UO-31 renal
SNB-78 CNS = tested on: SNB-78 CNS
K-562 leukemia = tested on: K-562 leukemia
ACHN renal = tested on: ACHN renal
A498 renal = tested on: A498 renal
SR leukemia = tested on: SR leukemia
U251 CNS = tested on: U251 CNS
NCI-H522 lung = tested on: NCI-H522 lung
OVCAR-8 ovarian = tested on: OVCAR-8 ovarian
SF-268 CNS = tested on: SF-268 CNS
786-0 renal = tested on: 786-0 renal
CAKI-1 renal = tested on: CAKI-1 renal
XF 498 CNS = tested on: XF 498 CNS
HL-60(TB) leukemia = tested on: HL-60(TB) leukemia
LOX IMVI melanoma = tested on: LOX IMVI melanoma
NCI-H23 lung = tested on: NCI-H23 lung
UACC-62 melanoma = tested on: UACC-62 melanoma
M14 melanoma = tested on: M14 melanoma
EKVX NSCLC = tested on: EKVX NSCLC
LXFL 529 NSCLC = tested on: LXFL 529 NSCLC
SK-OV-3 ovarian = tested on: SK-OV-3 ovarian
SK-MEL-2 melanoma = tested on: SK-MEL-2 melanoma
SNB-19 CNS = tested on: SNB-19 CNS
IGROV1 ovarian = tested on: IGROV1 ovarian
HOP-92 NSCLC = tested on: HOP-92 NSCLC
TK-10 renal = tested on: TK-10 renal
SF-539 CNS = tested on: SF-539 CNS
M19-MEL melanoma = tested on: M19-MEL melanoma
RXF 393 renal = tested on: RXF 393 renal
DLD-1 colon = tested on: DLD-1 colon
MALME-3M melanoma = tested on: MALME-3M melanoma
SNB-75 CNS = tested on: SNB-75 CNS
A549 NSCLC = tested on: A549 NSCLC
NCI-H460 lung = tested on: NCI-H460 lung
MOLT-4 leukemia = tested on: MOLT-4 leukemia
DMS 273 small cell lung = tested on: DMS 273 small cell lung
SK-MEL-28 melanoma = tested on: SK-MEL-28 melanoma
COLO 205 colon = tested on: COLO 205 colon
DU-145 prostate = tested on: DU-145 prostate
SN12C renal = tested on: SN12C renal
MDA-MB-231 breast = tested on: MDA-MB-231 breast
HCT-116 colon = tested on: HCT-116 colon
MCF7 breast = tested on: MCF7 breast
NCI/ADR-RES ovarian = tested on: NCI/ADR-RES ovarian
T-47D breast = tested on: T-47D breast
MDA-N = tested on: MDA-N
PC-3 prostate = tested on: PC-3 prostate
HS 578T breast = tested on: HS 578T breast
BT-549 breast = tested on: BT-549 breast
MDA-MB-435 = tested on: MDA-MB-435

CCOC(=O)C1C(c2ccc(Cl)cc2Cl)NC(c2ccc(C)cc2)C(C(=O)OC)S1(=O)=O (stereo unspecified)
TGI (CCRF-CEM leukemia): > 100 µM | TGI (UACC-257 melanoma): > 100 µM | TGI (SK-MEL-5 melanoma): > 100 µM | TGI (SF-295 CNS): > 100 µM | TGI (KM12 colon): > 100 µM | TGI (OVCAR-4 ovarian): > 100 µM | TGI (HOP-62 NSCLC): > 100 µM | TGI (OVCAR-3 ovarian): > 100 µM | TGI (SW-620 colon): > 100 µM | TGI (OVCAR-5 ovarian): > 100 µM | TGI (RPMI-8226 leukemia): > 100 µM | TGI (HCT-15 colon): > 100 µM | TGI (HCC-2998 colon): > 100 µM | TGI (NCI-H226 lung): > 100 µM | TGI (HT29 colon): > 100 µM | TGI (UO-31 renal): > 100 µM | TGI (SNB-78 CNS): > 100 µM | TGI (K-562 leukemia): > 100 µM | TGI (ACHN renal): > 100 µM | TGI (A498 renal): > 100 µM | TGI (SR leukemia): > 100 µM | TGI (U251 CNS): > 100 µM | TGI (NCI-H522 lung): > 100 µM | TGI (OVCAR-8 ovarian): > 100 µM | TGI (SF-268 CNS): > 100 µM | TGI (786-0 renal): > 100 µM | TGI (CAKI-1 renal): > 100 µM | TGI (XF 498 CNS): > 100 µM | TGI (HL-60(TB) leukemia): > 100 µM | TGI (LOX IMVI melanoma): > 100 µM | TGI (NCI-H23 lung): > 100 µM | TGI (UACC-62 melanoma): > 100 µM | TGI (M14 melanoma): > 100 µM | TGI (EKVX NSCLC): > 100 µM | TGI (LXFL 529 NSCLC): > 100 µM | TGI (SK-OV-3 ovarian): > 100 µM | TGI (SK-MEL-2 melanoma): > 100 µM | TGI (SNB-19 CNS): > 100 µM | TGI (IGROV1 ovarian): > 100 µM | TGI (HOP-92 NSCLC): > 100 µM | TGI (TK-10 renal): > 100 µM | TGI (SF-539 CNS): > 100 µM | TGI (M19-MEL melanoma): > 100 µM | TGI (RXF 393 renal): > 100 µM | TGI (DLD-1 colon): > 100 µM | TGI (MALME-3M melanoma): > 100 µM | TGI (SNB-75 CNS): > 100 µM | TGI (A549 NSCLC): > 100 µM | TGI (NCI-H460 lung): > 100 µM | TGI (MOLT-4 leukemia): > 100 µM | TGI (DMS 273 small cell lung): > 100 µM | TGI (SK-MEL-28 melanoma): > 100 µM | TGI (COLO 205 colon): > 100 µM

c1ccc(C2=NC3OC2c2ccccc23)cc1 (stereo unspecified)
TGI (CCRF-CEM leukemia): > 10 µM | TGI (DU-145 prostate): > 10 µM | TGI (UACC-257 melanoma): > 10 µM | TGI (SK-MEL-5 melanoma): > 10 µM | TGI (SF-295 CNS): > 10 µM | TGI (KM12 colon): > 10 µM | TGI (OVCAR-4 ovarian): > 10 µM | TGI (SN12C renal): > 10 µM | TGI (HOP-62 NSCLC): > 10 µM | TGI (MDA-MB-231 breast): > 10 µM | TGI (OVCAR-3 ovarian): > 10 µM | TGI (SW-620 colon): > 10 µM | TGI (OVCAR-5 ovarian): > 10 µM | TGI (RPMI-8226 leukemia): > 10 µM | TGI (HCT-15 colon): > 10 µM | TGI (HCC-2998 colon): > 10 µM | TGI (NCI-H226 lung): > 10 µM | TGI (HT29 colon): > 10 µM | TGI (K-562 leukemia): > 10 µM | TGI (ACHN renal): > 10 µM | TGI (A498 renal): > 10 µM | TGI (HCT-116 colon): > 10 µM | TGI (SR leukemia): > 10 µM | TGI (U251 CNS): > 10 µM | TGI (NCI-H522 lung): > 10 µM | TGI (OVCAR-8 ovarian): > 10 µM | TGI (SF-268 CNS): > 10 µM | TGI (786-0 renal): > 10 µM | TGI (CAKI-1 renal): > 10 µM | TGI (HL-60(TB) leukemia): > 10 µM | TGI (MCF7 breast): > 10 µM | TGI (LOX IMVI melanoma): > 10 µM | TGI (NCI-H23 lung): > 10 µM | TGI (UACC-62 melanoma): > 10 µM | TGI (NCI/ADR-RES ovarian): > 10 µM | TGI (M14 melanoma): > 10 µM | TGI (EKVX NSCLC): > 10 µM | TGI (T-47D breast): > 10 µM | TGI (SK-OV-3 ovarian): > 10 µM | TGI (SK-MEL-2 melanoma): > 10 µM | TGI (SNB-19 CNS): > 10 µM | TGI (IGROV1 ovarian): > 10 µM | TGI (HOP-92 NSCLC): > 10 µM | TGI (TK-10 renal): > 10 µM | TGI (SF-539 CNS): > 10 µM | TGI (RXF 393 renal): > 10 µM | TGI (MDA-N): > 10 µM | TGI (MALME-3M melanoma): > 10 µM | TGI (SNB-75 CNS): > 10 µM | TGI (A549 NSCLC): > 10 µM | TGI (NCI-H460 lung): > 10 µM | TGI (MOLT-4 leukemia): > 10 µM | TGI (PC-3 prostate): > 10 µM | TGI (HS 578T breast): > 10 µM | TGI (BT-549 breast): > 10 µM | TGI (MDA-MB-435): > 10 µM | TGI (SK-MEL-28 melanoma): > 10 µM | TGI (COLO 205 colon): > 10 µM
